Source: US7750017B2, “Heterocycles” (Bayer Schering Pharma Aktiengesellschaft, priority 2004, dated 2010)
Structures can show the parent of a compound that is named as a salt.

Tests used:
[1] = system: BT474 [human breast carcinoma, overexpressing HER2 (ErbB2)]; assay: In vitro tumor cell proliferation assay (Cell Titer-Glo luminescent cell viability), BT474 cells; format: cell-based; conditions: BT-474, 72 h, 72 hours of drug exposure, Cell Titer-Glo readout, read-out: IC50, anti-proliferative activity in BT474 cells
Excerpt: (§1) The utility of the compounds of the present invention can be illustrated, for example, by their activity in vitro in the in vitro tumor cell proliferation assay described below. The link between activity in tumor cell proliferation assays in vitro and anti-tumor activity in the clinical setting has been very well established in the art.
(§2) The following assay is one of the methods by which compound activity relating to treatment of the disorders identified herein can be determined.
(§3) The tumor cell proliferation assay used to test the compounds of the present invention involves a readout called Cell Titer-Glow® Luminescent Cell Viability Assay developed by Promega® (Cunningham, B A “A Growing Issue: Cell Proliferation Assays, Modern kits ease quantification of cell growth” The Scientist 2001, 15(13), 26, and Crouch, S P et al., “The use of ATP bioluminescence as a measure of cell proliferation and cytotoxicity” Journal of Immunological Methods 1993, 160, 81-88), that measures inhibition of cell proliferation. Generation of a luminescent signal corresponds to the amount of ATP present, which is directly proportional to the number of metabolically active (proliferating) cells.
(§4) A431 cells [human epidermoid carcinoma, ATCC # […], overexpressing HER1 (EGFR, ErbB1)] and BT474 [human breast carcinoma, ATCC # CRL-1555, overexpressing HER2 (ErbB2)] were plated at a density of 2.5×10^3 cells/well in 96 well black-clear bottom tissue culture plates in RPMI media with 10% Fetal Bovine Serum and incubated at 37° C. Twenty-four hours later, test compounds are added at a final concentration range from as high 100 μm to as low 64 pM depend on the activities of the tested compounds in serial dilutions at a final DMSO concentration of 0.1%. Cells were incubated for 72 hours at 37° C. in complete growth media after addition of the test compound. After 72 hours of drug exposure, the plates were equilibrated to room temperature for approximately 30 min. Then, using a Promega Cell Titer Glo Luminescent® assay kit, lysis buffer containing 100 microliters of the enzyme luciferase and its substrate, luciferin mixture, was added to each well. The plates were mixed for 2 min on orbital shaker to ensure cell lysis and incubated for 10 min at room temperature to stabilize luminescence signal. The samples were read on VICTOR 2 using Luminescence protocol, and analyzed with Analyze5 software to generate IC50 values.

[2] = system: A431 cells [human epidermoid carcinoma, overexpressing HER1 (EGFR, ErbB1)]; assay: In vitro tumor cell proliferation assay (Cell Titer-Glo luminescent cell viability), A431 cells; format: cell-based; conditions: A-431, 72 h, 72 hours of drug exposure, Cell Titer-Glo readout, read-out: IC50, anti-proliferative activity in A431 cells
Excerpt: as §1, §2, §3, §4

| SMILES | IC50 [1] [µM] | IC50 [2] [µM] |
| --- | --- | --- |
| OCC(O)c1ccc2c(c1)sc1ncnc(Nc3ccc(OCc4cccc(F)c4)c(Cl)c3)c12 (racemic) [Example 25, 1-[4-({3-chloro-4-[(3-fluorobenzyl)oxy]phenyl}amino) [1]benzothieno[2,3-d]pyrimidin-7-yl]ethane-1,2-diol] | ≤ 0.5 | ≤ 5 |
| OCC(O)c1ccc2c(c1)sc1ncnc(Nc3ccc(OCc4ccccn4)c(Cl)c3)c12 (racemic) [Example 73, 1-(4-{[3-chloro-4-(pyridin-2-ylmethoxy)phenyl]amino}[1]benzothieno[2,3-d]pyrimidin-7-yl)ethane-1,2-diol] | ≤ 0.5 | ≤ 5 |
| CCOC(=O)Cc1ccc2c(c1)sc1ncnc(Nc3ccc(OCc4cccc(F)c4)c(Cl)c3)c12 [Example 1, ethyl[4-({3-chloro-4-[(3-fluorobenzyl)oxy]phenyl}amino)[1]benzothieno[2,3-d]pyrimidin-7-yl]acetate] | ≤ 5 | ≤ 50 |
| OCCc1ccc2c(c1)sc1ncnc(Nc3ccc(OCc4cccc(F)c4)c(Cl)c3)c12 [Example 2, 2-[4-({3-chloro-4-[(3-fluorobenzyl)oxy]phenyl}amino)[1]benzothieno[2,3-d]pyrimidin-7-yl]ethanol] | ≤ 5 | ≤ 5 |
| Fc1cccc(COc2ccc(Nc3ncnc4sc5cc(CCBr)ccc5c34)cc2Cl)c1 [Example 3, 7-(2-bromoethyl)-N-{3-chloro-4-[(3-fluorobenzyl)oxy]phenyl}[1]benzothieno[2,3-d]pyrimidin-4-amine] | ≤ 0.5 | ≤ 5 |
| CS(=O)(=O)CCNCCc1ccc2c(c1)sc1ncnc(Nc3ccc(OCc4cccc(F)c4)c(Cl)c3)c12 [Example 4, N-{3-chloro-4-[(3-fluorobenzyl)oxy]phenyl}-7-(2-{[2-(methylsulfonyl)ethyl]amino}ethyl)[1]benzothieno[2,3-d] pyrimidin-4-amine] | ≤ 0.5 | ≤ 50 |
| COC[C@H]1CCCN1CCc1ccc2c(c1)sc1ncnc(Nc3ccc(OCc4cccc(F)c4)c(Cl)c3)c12 [Example 5, N-{3-chloro-4-[(3-fluorobenzyl)oxy]phenyl}-7-{2-[2-(methoxymethyl)pyrrolidin-1-yl]ethyl}[1]benzothieno[2,3-d] pyrimidin-4-amine] | ≤ 0.5 | ≤ 5 |
| COCCN(CCOC)CCc1ccc2c(c1)sc1ncnc(Nc3ccc(OCc4cccc(F)c4)c(Cl)c3)c12 [Example 6, 7-{2-[bis(2-methoxyethyl)amino]ethyl}-N-{3-chloro-4-[(3-fluorobenzyl)oxy]phenyl}[1] benzothieno[2,3-d]pyrimidin-4-amine] | ≤ 0.5 | ≤ 5 |
| Fc1cccc(COc2ccc(Nc3ncnc4sc5cc(CCn6ccnc6)ccc5c34)cc2Cl)c1 [Example 7, [3-chloro-4-(3-fluoro-benzyloxy)-phenyl]-[7-(2-imidazol-1-yl-ethyl)-benzo[4,5]thieno[2,3-d]pyrimidin-4-yl]-amine] | ≤ 5 | ≤ 50 |
| OCCN(CCO)CCc1ccc2c(c1)sc1ncnc(Nc3ccc(OCc4cccc(F)c4)c(Cl)c3)c12 [Example 8, 2,2'-({2-[4-({3-chloro-4-[(3-fluorobenzyl)oxy]phenyl}amino)[1]benzothieno[2,3-d]pyrimidin-7-yl]ethyl}imino)diethanol] | ≤ 0.5 | ≤ 5 |
| COCCNCCc1ccc2c(c1)sc1ncnc(Nc3ccc(OCc4cccc(F)c4)c(Cl)c3)c12 [Example 9, N-{3-chloro-4-[(3-fluorobenzyl)oxy]phenyl}-7-{2-[(2-methoxyethyl)amino]ethyl}[1] benzothieno[2,3-d]pyrimidin-4-amine] | ≤ 0.5 | ≤ 5 |
| Fc1cccc(COc2ccc(Nc3ncnc4sc5cc(CCN6CCOCC6)ccc5c34)cc2Cl)c1 [Example 10, N-{3-chloro-4-[(3-fluorobenzyl)oxy]phenyl}-7-(2-morpholin-4-ylethyl)[1] benzothieno[2,3-d]pyrimidin-4-amine] | ≤ 0.5 | ≤ 50 |
| Fc1cccc(COc2ccc(Nc3ncnc4sc5cc(CCN6CCCC6)ccc5c34)cc2Cl)c1 [Example 11, N-{3-chloro-4-[(3-fluorobenzyl)oxy]phenyl}-7-(2-pyrrolidin-1-ylethyl)[1] benzothieno[2,3-d]pyrimidin-4-amine] | ≤ 0.5 | ≤ 5 |
| COCCN1CCN(CCc2ccc3c(c2)sc2ncnc(Nc4ccc(OCc5cccc(F)c5)c(Cl)c4)c23)CC1 [Example 12, N-{3-chloro-4-[(3-fluorobenzyl)oxy]phenyl}-7-{2-[4-(2-methoxyethyl)piperazin-1-yl]ethyl}[1]benzothieno [2,3-d]pyrimidin-4-amine] | ≤ 0.5 | ≤ 5 |
| Fc1cccc(COc2ccc(Nc3ncnc4sc5cc(Br)ccc5c34)cc2Cl)c1 [Example 13, 7-bromo-N-{3-chloro-4-[(3-fluorobenzyl)oxy]phenyl}[1]benzothieno[2,3-d]pyrimidin-4-amine] | ≤ 5 | ≤ 50 |
| C=Cc1ccc2c(c1)sc1ncnc(Nc3ccc(OCc4cccc(F)c4)c(Cl)c3)c12 [Example 14, N-{3-chloro-4-[(3-fluorobenzyl)oxy]phenyl}-7-vinyl[1]benzothieno[2,3-d]pyrimidin-4-amine] | ≤ 0.5 | ≤ 50 |
| Fc1cccc(COc2ccc(Nc3ncnc4sc5cc(CCN6CCSCC6)ccc5c34)cc2Cl)c1 [Example 15, N-{3-chloro-4-[(3-fluorobenzyl)oxy]phenyl}-7-(2-thiomorpholin-4-ylethyl)[1] benzothieno[2,3-d]pyrimidin-4-amine] | ≤ 0.5 | ≤ 5 |
| Fc1cccc(COc2ccc(Nc3ncnc4sc5cc(CCNCCN6CCOCC6)ccc5c34)cc2Cl)c1 [Example 16, N-{3-chloro-4-[(3-fluorobenzyl)oxy]phenyl}-7-{2-[(2-morpholin-4-ylethyl)amino]ethyl}[1] benzothieno[2,3-d]pyrimidin-4-amine] | ≤ 0.5 | ≤ 50 |
| Fc1cccc(COc2ccc(Nc3ncnc4sc5cc(CCN6CCCCC6)ccc5c34)cc2Cl)c1 [Example 17, N-{3-chloro-4-[(3-fluorobenzyl)oxy]phenyl}-7-(2-piperidin-1-ylethyl)[1] benzothieno[2,3-d]pyrimidin-4-amine] | ≤ 0.5 | ≤ 5 |
| O=S1(=O)CCN(CCc2ccc3c(c2)sc2ncnc(Nc4ccc(OCc5cccc(F)c5)c(Cl)c4)c23)CC1 [Example 18, N-{3-chloro-4-[(3-fluorobenzyl)oxy]phenyl}-7-[2-(1,1-dioxidothiomorpholin-4-yl)ethyl][1]benzothieno[2,3-d] pyrimidin-4-amine] | ≤ 0.5 | ≤ 50 |
| [O-][S+]1CCN(CCc2ccc3c(c2)sc2ncnc(Nc4ccc(OCc5cccc(F)c5)c(Cl)c4)c23)CC1 [Example 19, N-{3-chloro-4-[(3-fluorobenzyl)oxy]phenyl}-7-[2-(1-oxidothiomorpholin-4-yl)ethyl][1] benzothieno[2,3-d]pyrimidin-4-amine] | ≤ 5 | ≤ 50 |
| OC[C@@H](O)COc1ccc2c(c1)sc1ncnc(Nc3ccc(OCc4cccc(F)c4)c(Cl)c3)c12 [Example 35, (2R)-3-{[4-({3-chloro-4-[(3-fluorobenzyl)oxy]phenyl}amino)[1]benzothieno[2,3-d]pyrimidin-7-yl]oxy}propane-1,2-diol] | – | ≤ 5 |
| CS(=O)(=O)CCNC(=O)/C=C/c1ccc2c(c1)sc1ncnc(Nc3ccc(OCc4cccc(F)c4)c(Cl)c3)c12 [Example 53, (2E)-3-[4-({3-chloro-4-[(3-fluorobenzyl)oxy]phenyl}amino) [1]benzothieno[2,3-d]pyrimidin-7-yl]-N-[2-(methylsulfonyl)ethyl]acrylamide] | – | ≤ 50 |
| O=C(/C=C/c1ccc2c(c1)sc1ncnc(Nc3ccc(OCc4cccc(F)c4)c(Cl)c3)c12)N1CCOCC1 [Example 55, N-{3-chloro-4-[(3-fluorobenzyl)oxy]phenyl}-7-[(1E)-3-morpholin-4-yl-3-oxoprop-1-en-1-yl][1]benzothieno[2,3-d] pyrimidin-4-amine trifluoroacetate] | – | ≤ 5 |
| CN1CCN(CCc2ccc3c(c2)sc2ncnc(Nc4ccc(OCc5ccccn5)c(Cl)c4)c23)CC1 [Example 91] | ≤ 0.5 | – |
| OC[C@@H](O)COc1ccc2c(c1)sc1ncnc(Nc3ccc(OCc4cccc(F)c4)c(Cl)c3)c12 [Example 147, ((2R)-3-{[4-({3-chloro-4-[(3-fluorobenzyl)oxy]phenyl}amino)[1]benzothieno[2,3-d]pyrimidin-7-yl]oxy}propane-1,2-diol hydrochloride] | ≤ 0.5 | – |
